Laboratory results published in publication PMC11026381, “Late-stage meta-C–H alkylation of pharmaceuticals to modulate biological properties and expedite molecular optimisation in a single step” (Nature Communications, 2024).
In brackets after ≈: the same amount, converted by molar mass.

Columns and labels:
[1] = Octanol/water partitioning (LogD), shake-flask method; type: physicochemical; settings: n = 1; for logD: 1-octanol/phosphate buffer, pH 7.4, 1-octanol / phosphate buffer pH 7.4, 20 °C; for LogD (octanol): 1-octanol / phosphate buffer pH 7.4, 20 °C
Excerpt: (§1) 5. Pharmaceutically relevant properties modulation
(§2) Product analogues 5e, 6a-6k obtained after late-stage meta-C–H alkylation of the pharmaceutically active compound Emapunil (4e) were subjected to a range of fundamental in vitro drug discovery assays. To prevent hydrolysis of ester groups present on these analogues during biological testing (in order to compare the clearance and metabolic stability between these drug derivatives), their corresponding free acids 5e’, 6a’-6k’ were synthesised (see page S54) and subjected to similar assays.
(§3) The experimental methods used for these physicochemical & drug metabolism and pharmacokinetics (DMPK) assays are described below 11. […]
Octanol/water partitioning (LogD)
Partitioning of compounds between 1 -octanol and phosphate buffer (0.1 M, pH 7.4) at 20 °C were determined using a modified version of the shake -flask method described by Leo et al13. Compounds were dissolved in a 96 -well plate, in 400 μL octanol, and 400 μL of buffer was added to each well. The plate was vigorously stirred for 5 min and then put on an Edmund Bühler shaker (Edmund Bühler GmbH, Hechingen, Germany) at 20 °C for 18 hours. Aliquots of 5 μL octanol were transferred and diluted with 495 μL MeCN/H2O (1:1) and, to avoid contamination of the buffer, the rest of the octanol was removed before 150 μL of buffer samples were transferred. Octanol and buffer samples were diluted with MeCN/H2O (1:1) in four steps of 10 times to yield octanol samples diluted 10 2 to 106 times and buffer samples diluted 1 to 104 times. LC-MS/MS (Waters Xevo-TQS) was used for analysis, and distribution coefficient at pH 7.4 (LogD7.4) was calculated from the integrated peak areas of the samples in the linear MS response range. LogD7.4 results were reported as median values. […]

[2] = Metabolic stability in male Han Wistar rat hepatocytes (CLint Rat Hep.); type: in vitro ADME; settings: measured on the labelled compound itself, 1 μM, 10^6 viable cells/mL, 37 °C, n = 1
Method: Metabolic stability in male Han Wistar rat hepatocytes (CLint Rat Hep.) Hepatocyte metabolic stability was determined in accordance with the method described by Jacobson et al14. Cryopreserved hepatocytes at a concentration of 10 6 viable cells/mL were used. After thawing, hepatocytes were incubated for 10 min to warm to 37 °C, and compounds dissolved in MeCN were […]
incubation system was mixed and 20 μL aliquots were transferred at each time point to wells in a separate plate filled with 80 μL MeCN to stop the reaction. The quenching plate was then vortexed followed by centrifugation, and supernatants were analysed by LC-MS/MS (Waters Xevo-TQS). Peak areas were determined from extracted ion chromatograms, and the in vitro intrinsic clearance (in vitro CLint, in μL/min/10^6 cells) of parent compound was calculated from the slope in the regression analysis of the natural logarithm of parent concentration vs. time curve. Rat Hepatocytes (Cryosuspension, Male Wistar Hannover ) were harvested and s upplied by BioIVT (Product No. M00065, Lot No. DVO).
(§4) The modulation of pharmaceutically relevant properties on meta-C–H alkylation is shown below in Supplementary Fig. 68, with a selection of physicochemical and DMPK data including solubility , LogD, human plasma protein binding (Prot. Bind.) and intrinsic clearance (CLint) in human liver microsomes (HLM) or rat hepatocytes (Rat Hep.) .

[3] = Metabolic stability in human liver microsomes (CLint HLM); type: in vitro ADME; settings: 1 mg/mL microsomal protein, 1 mM NADPH, 37 °C; for microsomal CLint at 1 μM: both sexes, human, liver microsomes, pH 7.4, measured on the labelled compound itself, n = 1, read-out: CLint HLM (intrinsic clearance in human liver microsomes); for CLint HLM (intrinsic clearance in human liver microsomes): measured on the labelled compound itself, 1 μM, n = 1
Method: Metabolic stability in human liver microsomes (CLint HLM)
Human liver microsomes were defrosted on ice and diluted to 1 mg/mL of microsomal protein in phosphate buffer (0.1 M, pH 7.4). Compounds at 1 μM were incubated with the liver microsome suspensions and 1 mM NADPH at 37 °C in a 96-well plate. At 0.5, 5, 10, 15, 20 and 30 min, aliquots of 30 μL were transferred to a 96-well plate containing 120 μL MeCN. This plate was centrifuged for 20 min and supernatant was removed and diluted with H2O (1:1) before analysis by LC-MS/MS (Waters Xevo-TQS). Peak areas were determined from extracted ion chromatograms, and the in vitro intrinsic clearance (in vitro CLint, in μL/min/mg microsomal protein) of parent compound was calculated from the slope in the regression analysis of the natural logarithm of parent concentration vs. time curve.
Human Liver Microsomes (InVitroCYPTM 150-Donor, Mixed Gender) were harvested and supplied by BioIVT (Product No. X008070, Lot No. QQY). […]
as §4

[4] = Thermodynamic solubility, shake-flask approach, phosphate buffer pH 7.4; type: physicochemical; settings: pH 7.4, phosphate buffer 0.1 M, 20 °C, n = 1
Excerpt: as §1, §2
The experimental methods used for these physicochemical & drug metabolism and pharmacokinetics (DMPK) assays are described below 11.
This method measures the thermodynamic solubility of compounds based on a shake-flask approach12.
The nature of the solid state was unknown in these experiments and may be subject to variability. The compounds were dissolved in DMSO (30 μL, 10 mM) in glass vials, and were dried using a Genevac vacuum evaporator (Genevac Ltd, Ipswich, UK). When the samples were dry, 300 μL of phosphate buffer (0.1 M, pH 7.4) was added to the glass vials. The vials were put on an Edmund Bühler shaker (Edmund Bühler GmbH, Hechingen, Germany) at 20 °C for 18 hours. Samples were filtered through a Whatman GF/B 96-well filter and 20 μL of filtrated samples were transferred to separate wells in a plate containing 180 μL MeCN/H2O (1:1). Standards were prepared by diluting the 10 mM compound solutions with MeCN/H2O (1:1) to 200 μM. Three further dilution steps of 10 times were applied to both the samples and standards and they were all analy sed by LC-MS/MS (Waters Xevo-TQS). Solubility was determined using the integrated peak areas of the samples in the linear MS response range. […]

[5] = Fraction unbound in human plasma (Prot. Bind.), equilibrium dialysis; type: in vitro ADME; settings: 5 μM, dialysis at 37 °C for 18 hours
Excerpt: as §1, §2, §3
Fraction unbound in human plasma (Prot. Bind.)
Equilibrium dialysis of compounds was used to assess the fraction unbound in human plasma. Stock solutions of compounds dissolved in DMSO were pooled into cassettes with up to 10 compounds in each cassette with a concentration of 1 mM. The pooled stock solutions were diluted in plasma to a compound concentration of 5 μM. Warfarin, propranolol and metoprolol were used as reference compounds in each run. The equilibrium dialysis device (RED, Thermo Fischer Scientific Inc., Rockford, USA) was used for dialysis against phosphate buffer (pH 7.4) at 37 °C for 18 hours. Calibration curves ranging from 0.001 to 7 μM were made using aliquots of the 7 μM spiked plasma pools that were transferred to a new plate followed by serial dilutions with blank plasma. Calibration curve samples and dialysis samples were precipitated with MeCN and after centrifugation, supernatants were removed and analysed using LC-MS/MS (Waters Xevo-TQS). Fraction unbound in the incubation was calculated as the concentration in the media buffer sample divided by the concentration in the plasma sample. The fraction unbound was reported as the median value.

[6] = aqueous buffer, thermodynamic from solid

| SMILES | logD [1] | CLint Rat Hep. (intrinsic clearance in rat hepatocytes) [2] [μL/min/10^6] | microsomal CLint at 1 μM [3] [µL/min/mg] | solubility at 18 h [4, 6] [µM] | Prot. Bind. (% free), human plasma protein binding ([5]; n = 1) [% free] | LogD (octanol) [1] | CLint Rat Hep. (intrinsic clearance in rat hepatocytes) ([2]; listed as 5e’) [μL/min/10^6] | CLint HLM (intrinsic clearance in human liver microsomes) [3] [µL/min/mg] | solubility at 18 h [4] [µM] | Prot. Bind. (% free), human plasma protein binding ([5]; n = 1, listed as 5e’) [% free] | CLint Rat Hep. (intrinsic clearance in rat hepatocytes) ([2]; listed as 6a’) [μL/min/10^6] | CLint Rat Hep. (intrinsic clearance in rat hepatocytes) ([2]; listed as 6b’) [μL/min/10^6] | Prot. Bind. (% free), human plasma protein binding ([5]; n = 1, listed as 6b’) [% free] | CLint Rat Hep. (intrinsic clearance in rat hepatocytes) ([2]; listed as 6c’) [μL/min/10^6] | CLint Rat Hep. (intrinsic clearance in rat hepatocytes) ([2]; listed as 6e’) [μL/min/10^6] | Prot. Bind. (% free), human plasma protein binding ([5]; n = 1, listed as 6e’) [% free] | CLint Rat Hep. (intrinsic clearance in rat hepatocytes) ([2]; listed as 6f’) [μL/min/10^6] |
| --- | --- | --- | --- | --- | --- | --- | --- | --- | --- | --- | --- | --- | --- | --- | --- | --- | --- |
| CCN(Cc1ccccc1)C(=O)Cn1c(=O)n(C)c2cnc(-c3ccccc3)nc21 [4e, emapunil, reference compound] | 3.2 | 164 | 218 | 6 (≈ 2.41 µg/mL) | 0.8 | – | – | – | – | – | – | – | – | – | – | – | – |
| CCOC(=O)C1(c2cccc(-c3ncc4c(n3)n(CC(=O)N(CC)Cc3ccccc3)c(=O)n4C)c2)CCC1 [5e] | 4.4 | > 300 | > 300 | 17 (≈ 8.97 µg/mL) | 0.4 | 0.7 | 15.9 | 5.5 | > 1000 | 2.0 | – | – | – | – | – | – | – |
| CCOC(=O)Cc1cccc(-c2ncc3c(n2)n(CC(=O)N(CC)Cc2ccccc2)c(=O)n3C)c1 [6a] | 3.3 | > 300 | > 300 | 41 (≈ 20 µg/mL) | 12.0 | -0.5 | – | < 3.0 | 924 (≈ 451 µg/mL) | – | 10.5 | – | – | – | – | – | – |
| CCOC(=O)C(C)(C)c1cccc(-c2ncc3c(n2)n(CC(=O)N(CC)Cc2ccccc2)c(=O)n3C)c1 [6b] | 4.2 | > 300 | > 300 | 8 (≈ 4.12 µg/mL) | 0.8 | 0.5 | – | 11.1 | > 1000 | – | – | 10.3 | 3.0 | – | – | – | – |
| CCN(Cc1ccccc1)C(=O)Cn1c(=O)n(C)c2cnc(-c3cccc(C4(C(=O)OC)CC4)c3)nc21 [6c] | 3.3 | > 300 | > 300 | 51 (≈ 25.5 µg/mL) | 6.6 | 0.3 | – | < 3.0 | 965 (≈ 482 µg/mL) | – | – | – | – | 36.2 | – | – | – |
| CCN(Cc1ccccc1)C(=O)Cn1c(=O)n(C)c2cnc(-c3cccc(C4(C#N)CCC4)c3)nc21 [6d] | 3.9 | > 300 | > 300 | 50 (≈ 24 µg/mL) | 0.5 | – | – | – | – | – | – | – | – | – | – | – | – |
| CCN(Cc1ccccc1)C(=O)Cn1c(=O)n(C)c2cnc(-c3cccc(C4(C(=O)OC)CCCC4)c3)nc21 [6e] | 4.3 | > 300 | > 300 | 36 (≈ 19 µg/mL) | 0.4 | 1.4 | – | < 3.0 | 864 (≈ 456 µg/mL) | – | – | – | – | – | 51.0 | 0.7 | – |
| CCOC(=O)C(F)(F)c1cccc(-c2ncc3c(n2)n(CC(=O)N(CC)Cc2ccccc2)c(=O)n3C)c1 [6f] | 4.3 | > 300 | > 300 | 12 (≈ 6.28 µg/mL) | 3.3 | -0.4 | – | 4.0 | 852 (≈ 446 µg/mL) | – | – | – | – | – | – | – | 6.8 |
